Read-outs that look alike come from different tables or passages of the source. Residues, ends and D or L forms follow the SMILES beside them.
Legend:
S1-M1-80 cells [1] = assay: cells; format: cell-based, human
Method: (§1) HCT-116, HCT-15, S1-M1-80, S1, L929, HEK293T-Jagged-1 were seeded in each well of a 96-well plate with a series of concentrations (a serial dilution from 1000μM to 0.5 μM) of peptides or drugs including DAPT, Topotecan at 37° C. with 5% CO2 in a humidified incubator for 3 days. Percentage of survival was determined by MTS assay as described.

S1 = assay: cells; format: cell-based, human
Method: as §1

Jag1-Notch1 signalling = assay: Co-culture Notch luciferase reporter assay, Jag1-induced; format: cell-based, human; details: for inhibition of Jag1-induced Notch1 signalling, dose response: reporter assay, DAPT 50 μM; for inhibition of Jag1-induced Notch signaling compared with N1: peptides 25 μM
Method: Jag1-Notch interaction is measured using a co-culture assay with one cell line expressing the Notch ligand Jagged1 (Jag1) and a second expressing Notch (either Notch1 or Notch2). A firefly luciferase reporter plasmid with 12 upstream CBF-1 binding site was transfected into signalling-receiving cells to report on Notch signalling (FIG. 1D). Peptides were tested for their activity in inhibiting Jag1-induced Notch signalling. Complete inhibition is equivalent to the background signal seen without induction (−Jag1). […] N1 (SEQ ID NO: 10) is a 15-mer derived from the EGF-like repeat 12 of Notch1 (C467-G481). This is consistent with the structural information that EGF-like repeat 12 of Notch1 is near the MNNL domain of Jag1 (FIGS. 1B and C).
(§2) Specificity of N1 (SEQ ID NO: 10) peptide in inhibiting different Notch ligand-induced Notch signaling was investigated using in vitro co-culture assay. HEK293T or CHO cells expressing Notch ligand (either Jag1, DLL1 or DLL4) are co-cultured with Notch1- or Notch2-expressing cells. Notch1 and Notch2 signalling can be measured by either luciferase reporter assay or by the formation of NICD1 and NICD2. […] Half inhibition is reached at between 50 to 100 μM. […] This contrasts with DAPT which affects all the above interactions.
(§3) HEK-293T-Jagged-1 cells were seeded in 24-well plates in triplicate per sample group, and human HCT-116 cells were seeded in one 60 mm dish. Cells were allowed to settle, and were transfected the following day after the medium was changed to be antibiotic free. HCT-116 cells were transfected with 12×CSL-Luc and Renilla-Luc, using Lipofectamine® 3000 (Invitrogen™), according to the manufacturer's instructions. After 24 hours, HCT-116 cells were scraped and 2.5×10^4 cells in 1 mL complete medium per well were added to both 24-well plates. Peptides were treated to cells with the desired concentrations. N—[N-(3,5-difluorophenacetyl)-L-alanyl]-S-phenylglycine t-butyl ester (DAPT) was used as positive control. Cells were co-cultured for 12 hours before measure the luciferase activity. After incubation, cells were lysed with luciferase lysis buffer. Notch activity in cells expressing the 12×CSL-Luc reporter construct was measured by a luciferase assay using Dual-Luciferase® Reporter Assay System (Promega).

DLL1-Notch1 signalling = assay: Co-culture Notch luciferase reporter assay, DLL1-induced; format: cell-based, human; details: DAPT 50 μM
Method: as §2, §3

DLL4-Notch1 signalling = assay: Co-culture Notch luciferase reporter assay, DLL4-induced; format: cell-based, human; details: DAPT 50 μM
Method: as §2, §3

NICD1 [2] = assay: NICD1 formation in HCT-116; format: cell-based, human; details: peptides 100 μM
Method: (§4) This panel of peptides was also tested for their cytotoxic activities against two human colorectal cell lines (HCT-116 and HCT-15). At a concentration of 100 μM, N1 (SEQ ID NO: 10) is the only peptide that is cytotoxic to HCT-116 and HCT-15 cells (FIGS. 2B and C). Notch signaling results in the release of NICD1 from the membrane-bound Notch receptor.
(§5) The cleaved Notch1 (Val1744) (D3B8) rabbit monoclonal antibody (CST) and Notch2 (Cleaved Ala1734) rabbit monoclonal antibody at 1:1000 dilution were used to detect human Notch intracellular domain (NICD1) and Notch2 intracellular domain (NICD2), respectively. β-actin was detected using a mouse monoclonal antibody (Santa Cruz Biotechnology) at 1:3000 dilution.

NICD1 [3] = assay: NICD1 formation in HCT-15; format: cell-based, human; details: peptides 100 μM
Method: as §4, §5

Jag1-induced NICD1 = assay: Co-culture assay, Jag1-induced NICD1 level; format: cell-based, human; details: N1 at 50 μM
Method: as §2, §5

NICD2 = assay: Co-culture assay, NICD2 formation (Jag1-Notch2); format: cell-based, human
Method: as §2, §5

DLL1-induced NICD1 = assay: Co-culture assay, DLL1-induced NICD1 level; format: cell-based, human
Method: as §2, §5

DLL4-induced NICD1 = assay: Co-culture assay, DLL4-induced NICD1 level; format: cell-based, human
Method: as §2, §5

S1-M1-80 cells [4] = assay: Clonogenicity assay, S1-M1-80; format: cell-based, human; details: for colony formation, combination with TPT: S1-M1-80, combined with 1 μM of TPT (DAPT 1 μM)
Method: The procedure for colony formation assay consists of following steps. An appropriate number of cells per well were seeded on a 6-well plate in duplicate. The number of cells for seeding should be related to the aggressiveness of the treatment. The cells were incubated for 12 hours in a CO2 incubator at 37° C. and allow cells to attach to the plate. The cells were treated with peptides or (DAPT) to required concentrations. The cells were incubated in a in a CO2 incubator at 37° C. for about 10 days until cells in control well have formed colonies which are of a substantially good size (the minimum score is 100 cells per colony). After the incubation, the medium was removed and cells were rinsed with 5 ml 1×PBS (phosphate buffered saline. pH 7.2). The cells were then fixed with 1 ml methanol at room temperature for 10 min. After fixation, the cells were stained with 0.5% crystal violet solution and incubated at room temperature for 1 h. After staining, the plates were immersed in deionized water to rinse off crystal violet and air-dried at room temperature for overnight. The dry plates were pictured with scanner. The number of colonies in each well was counted by cell counter software.

HEK-293T-Jagged-1 cells = format: cell-based, human
Method: as §1

in vitro = format: cell-based; details: mouse
Method: as §1

NICD1 [5] = assay: NICD1 formation in S1-M1-80; format: cell-based, human; details: 10 μM
From the text: as §5

inhibition of DLL1-Notch1 signalling (DLL1-Notch1 signalling) | inhibition of DLL4-Notch1 signalling (DLL4-Notch1 signalling) | IC50 (S1-M1-80 cells [1]) | IC50 at 3 days (in vitro) | IC50 (S1) | inhibition of Jag1-induced Notch signaling compared with N1 (Jag1-Notch1 signalling) | SMILES | inhibition of Jag1-induced Notch1 signalling, dose response (Jag1-Notch1 signalling) | Jag1-induced NICD1 level (Jag1-induced NICD1) | colony formation, combination with TPT (S1-M1-80 cells [4]) | colony formation (S1-M1-80 cells [4]; S1-M1-80, single agent 10 μM) | IC50 (HEK-293T-Jagged-1 cells) | also measured
can inhibit all signaling | can inhibit all signaling | – | – | – | – | C[C@H](NC(=O)Cc1cc(F)cc(F)c1)C(=O)N[C@H](C(=O)OC(C)(C)C)c1ccccc1 [DAPT, N—[N-(3,5-Difluorophenacetyl)-L-alanyl]-S-phenylglycine t-butyl ester, reference compound] | can inhibit all signaling | equally effective in inhibiting both NICD1 and NICD2 | 1074 colonies/well | 717 colonies/well | – | IC50 (S1-M1-80 cells [1]; S1-M1-80 cells, 3 days, MTS, read-out: IC50 (μM) s1-m1-80): 17.1 ± 0.4 µM; IC50 (S1; S1 cells, 3 days, MTS, read-out: IC50 (μM) S1): > 100 µM; NICD1 formation in HCT-116 (NICD1 [2]): almost complete elimination of NICD1; NICD1 formation in HCT-15 (NICD1 [3]): almost complete elimination of NICD1; NICD2 formation (NICD2): equally effective in inhibiting both NICD1 and NICD2; DLL1-induced NICD1 level (DLL1-induced NICD1): can inhibit both; DLL4-induced NICD1 level (DLL4-induced NICD1): can inhibit both
– | – | 14.9 ± 4.8 µM | > 100 µM | – | – | CC[C@H](C)[C@H](NC(=O)[C@H](CCC(N)=O)NC(=O)[C@H](CC(=O)O)NC(=O)[C@H](CC(C)C)NC(=O)[C@H](CS)NC(=O)[C@@H](N)Cc1ccc(O)cc1)C(=O)NCC(=O)N[C@@H](CCC(=O)O)C(=O)N[C@@H](Cc1ccccc1)C(=O)N[C@@H](CCC(N)=O)C(=O)N[C@@H](CS)C(=O)N[C@H](C(=O)N[C@@H](CS)C(=O)N[C@@H](CCC(=O)O)C(=O)O)[C@@H](C)CC [N102T466Y-M479E, YCLDQIGEFQCICE] (H-YCLDQIGEFQCICE-OH; N-terminus and C-terminus assumed) | – | – | – | – | > 100 µM | –
did not interfere | did not interfere | 5.8 ± 0.2 µM | > 100 µM | > 50 µM | biggest improvement | CC[C@H](C)[C@H](NC(=O)[C@H](CCC(N)=O)NC(=O)[C@H](CC(=O)O)NC(=O)[C@H](CC(C)C)NC(=O)[C@@H](N)CS)C(=O)NCC(=O)N[C@@H](CCC(=O)O)C(=O)N[C@@H](Cc1ccccc1)C(=O)N[C@@H](CCC(N)=O)C(=O)N[C@@H](CS)C(=O)N[C@H](C(=O)N[C@@H](CS)C(=O)N[C@@H](CC(=O)O)C(=O)O)[C@@H](C)CC [Peptide N102M479D, CLDQIGEFQCICD] (H-CLDQIGEFQCICD-OH; N-terminus and C-terminus assumed) | inhibited Jag1-induced Notch1 signaling in dose dependent manner | significantly decreased expression level of NICD1 | – | – | > 100 µM | –
did not interfere | did not interfere | 4.9 ± 0.2 µM | > 100 µM | > 30 µM | biggest improvement | CC[C@H](C)[C@H](NC(=O)[C@H](CCC(N)=O)NC(=O)[C@H](CC(=O)O)NC(=O)[C@H](CC(C)C)NC(=O)[C@@H](N)CS)C(=O)NCC(=O)N[C@@H](CCC(=O)O)C(=O)N[C@@H](Cc1ccccc1)C(=O)N[C@@H](CCC(N)=O)C(=O)N[C@@H](CS)C(=O)N[C@H](C(=O)N[C@@H](CS)C(=O)N[C@@H](CCC(=O)O)C(=O)O)[C@@H](C)CC [Peptide N102M479E, CLDQIGEFQCICE] (H-CLDQIGEFQCICE-OH; N-terminus and C-terminus assumed) | inhibited Jag1-induced Notch1 signaling in dose dependent manner | significantly decreased expression level of NICD1 | 581 colonies/well | 84 colonies/well | > 100 µM | NICD1 formation in S1-M1-80 cells (NICD1 [5]): totally suppress NICD1 formation; colony formation of S1-M1-80, dose response (S1-M1-80 cells [4]): effectively reduced colony formation; colony formation of S1-M1-80 (S1-M1-80 cells [4]; 1 μM): reduced by half; more potent than DAPT (colony formation) (S1-M1-80 cells [4]; 1 μM): 14%; colony formation of S1-M1-80 (S1-M1-80 cells [4]; 5 μM): almost eliminated the formation of all colonies; colony formation of S1-M1-80 (S1-M1-80 cells [4]; 10 μM): completely eliminated the formation of colonies; colony formation (S1-M1-80 cells [4]; S1-M1-80, single agent 1 μM): 925 colonies/well; effect with topotecan on colony formation of S1-M1-80 (S1-M1-80 cells [4]; TPT plus N102M479E): synergistic; increase of potency over TPT-DAPT combination (colony formation) (S1-M1-80 cells [4]; combined with 1 μM of TPT): 19%

From US11117932B2, “Peptides for specific inhibition of Jag 1-Notch 1 pathway” (The Hong Kong Polytechnic University, priority 2018, dated 2021)
